US9726659B2, “CMPF as a biomarker for diabetes and associated methods” (The Governing Council of the University of Toronto, priority 2012, dated 2017)

What was measured:
MIN6 cells = test: Annexin V and propidium iodide staining for apoptosis and necrosis; format: cell-based, murine; conditions: 20 uM or 200 uM, 4 hrs
Procedure: A) MIN6 cells were treated for 4 hrs with 0 uM (EtOH vehicle control), 20 uM or 200 uM CMPF prior to being loaded with Annexin V and propidium iodide fluorescent dyes, and counterstained with Hoechst dye. […] B) Primary CD1 islets were dispersed and treated with vehicle control (0 CMPF, black), 20 uM CMPF (grey), or 200 uM CMPF (white) for 48 hours, then stained with Annexin V, Propidium Iodide and Hoechst dye. Quantification of double positive staining was assessed by an Arrayscan VTI HCS reader.
Next the mechanism underlying the observed impairment in GSIS following treatment with CMPF was investigated. To determine whether CMPF was inhibiting GSIS by inducing beta cell apoptosis, Annexin V and Propidium Iodide staining was performed in MIN6 cells treated with vehicle (EtOH), 20 uM or 200 uM CMPF for 4 hrs to look for apoptosis and necrosis respectively. […] MIN6 cells treated with 5 mM H2O2 for 3 hrs were used as a positive control (FIG. 4).

murine islets = test: qPCR mRNA expression in treated murine islets; format: cell-based; conditions: 24 hrs
Procedure: First, the effect of CMPF treatment on insulin biosynthesis was investigated to determine if insulin is available to be released upon stimulation. MIN6, murine and human islets were treated with vehicle control, 20 uM and 200 uM CMPF for 4 hrs (MIN6) or 24 hrs (islets), and total insulin content measured. […] To determine the mechanism through which CMPF is reducing total insulin content, quantitative PCR (qPCR) was performed on RNA that was isolated from murine islets treated with either vehicle control or 200 uM CMPF for 24 hrs. […] Total RNA was extracted from 24 hour vehicle or CMPF-treated islets using the Qiagen RNeasy Plus mini kit (Hilden, Germany). Microarray analysis was performed as previously described (Basford et al. 2012) using the Affymetrix Mouse 430 2.0 Gene Chip at the University Health Network microarray center (Toronto, Canada). Significant changes were defined as P<0.05. Microarray data will be available on the NCBI GEO database at the time of publication. Human islet microarray data can be found at GE040709. Reverse transcription from total RNA and quantitative real time PCR (qPCR) analysis was performed as previously described (Basford et al. 2012). Primers were designed using Primer3 software (NCBI). Data were normalized to beta actin mRNA.

primary human islets = test: Glucose-stimulated insulin secretion in primary human islets; format: cell-based; conditions: 200 uM, 24 hour pre-incubation, vs vehicle and 20 uM
Procedure: (§1) LG=2.8 mM glucose, HG=16.7 mM glucose, KCl=16.7 mM glucose+30 mM KCl. *p<0.05.
(§2) Since beta cell failure is a major underlying cause of both GDM and T2D, the effect of increased CMPF on beta cell function was investigated both in vitro and in vivo. Using physiological concentrations of CMPF (20 uM and 200 uM, as observed in our NGT-pregnant and GDM-pregnant samples respectively (FIG. 2)), as well as a vehicle control (EtOH), its effect was studied on glucose-stimulated insulin secretion (GSIS) and insulin secretion in response to direct depolarization using the secretagogue KCl in an immortalized murine beta cell line (MIN6), as well as primary isolated human and murine islets (FIG. 3A). […] Therefore, high physiologically relevant levels of CMPF impair GSIS.

albumin = albumin (Homo sapiens, UniProt P02768); conditions: cited from earlier work
primary murine islets = test: Glucose- and KCl-stimulated insulin secretion in primary murine islets; format: cell-based; conditions: 200 uM
Procedure: as §1, §2

mouse islets = test: ROS accumulation in isolated islets (mitoSOX red, CM-H2-DCFDA); format: cell-based; conditions: 200 μM, after 4 and 24 hrs of treatment
Procedure: A) Proinsulin in the media of 24 hr treated islets (n=4/group). B) Mitochondrial membrane potential (MMP) following acute addition of vehicle control or 200 μM of CMPF (N=3/group). C) ROS levels in 4- and 24-hour treated mouse islets with representative images (N=10-15 islets/mouse from 4 mice/group). D) Expression of antioxidant genes Cat and (e) Ucp2 (n=4/group). F) ROS accumulation in 24 hr-treated islets treated with 500 μM NAC (n=10 islets/mouse from 4 mice/group). G) GSIS and (h) total insulin content from 24 hr-treated islets co-treated with 500 μM NAC (n=4/group). Western blots showing (i) Ser9 phosphorylation of GSK3β, (j) Ser473 phosphorylation of AKT (n=3/group). K) Immunofluorescent staining showing nuclear translocation of FOXO1 and (l) PDX1 with CMPF and NAC treatment (n=3-6). Quantification of nuclear percentage of (m) FOXO1 and (n) PDX1 based on immunofluorescent staining with CMPF and NAC treatment. O) Western blots showing protein abundance of PDX1 and FOXO1. Values are mean+/−SEM. Student's t-test (a, c-j, m-o), one-way ANOVA (b). *P<0.05, **P<0.01, ***P<0.001.
The level of superoxide and H2O2 were determined using mitoSOX red and 2′,7′-dichlorodihydro fluorescein diacetate (CM-H2-DCFDA) respectively (Molecular Probes, Invitrogen, Canada) in isolated islets treated with either vehicle control or 200 μM CMPF for 4 or 24 hours, as previously described (Lee et al. 2009). […]

[1] = test system: dispersed CD1 mouse islet cells; test: Immunofluorescent staining of FOXO1 and PDX1 localization; format: cell-based; conditions: CMPF-treated islets
Procedure: The cellular localization of FOXO1 and PDX1 were determined in dispersed CD1 mouse islet cells using immunofluorescence. The presence of the organic anion transporters (OATs) were determined in dispersed human islet cells also using immunofluorescence. Staining was performed as previously described (Diao et al., 2008). Images were acquired using a confocal microscope (Quorum Wave FX Spinning Disc; Perkin Elmer, Waltham M L, USA) and Volocity software (Perkin Elmer).
To determine the mechanism through which CMPF decreases insulin biosynthesis we examined its effect on these key regulators. Under normal conditions, AKT and GSK3β have reciprocal activities. Active pAKT phosphorylates and inactivates GSK3β, preventing phosphorylation of downstream targets (Humphrey et al., 2010). […] FOXO1 is normally sequestered in the cytosol due to phosphorylation by AKT (Kitamura et al., 2005). […] Altered activity of these transcription factors is further confirmed by decreased mRNA levels of key target genes including Inst, transcription factors Pdx1 and Mafa, proinsulin processing enzymes CpE, Pc1 and Pc2, and the glucose transporter Glut2 (Boucher et al., 2006; Kaneto et al. 2008) (FIG. 18a).

Sequence of albumin (P02768 25-609, species assumed): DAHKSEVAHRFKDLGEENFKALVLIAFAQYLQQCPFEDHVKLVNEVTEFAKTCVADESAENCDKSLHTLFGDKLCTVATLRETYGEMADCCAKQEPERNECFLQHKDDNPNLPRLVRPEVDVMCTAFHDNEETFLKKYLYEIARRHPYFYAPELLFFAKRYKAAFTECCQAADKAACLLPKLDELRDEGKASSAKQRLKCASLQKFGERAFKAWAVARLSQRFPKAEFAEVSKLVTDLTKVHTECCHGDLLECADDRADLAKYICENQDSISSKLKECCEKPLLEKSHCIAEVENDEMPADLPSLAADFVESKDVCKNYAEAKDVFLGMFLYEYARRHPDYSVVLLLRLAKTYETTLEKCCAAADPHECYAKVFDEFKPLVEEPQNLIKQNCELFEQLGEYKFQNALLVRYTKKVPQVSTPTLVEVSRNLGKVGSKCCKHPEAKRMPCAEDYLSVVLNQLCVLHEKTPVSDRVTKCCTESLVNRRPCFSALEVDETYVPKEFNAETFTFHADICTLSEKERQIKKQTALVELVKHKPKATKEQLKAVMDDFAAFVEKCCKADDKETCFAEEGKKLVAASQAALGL

In the case of `CCCc1oc(CCC(=O)O)c(C(=O)O)c1C` [CMPF, 3-carboxy-4-methyl-5-propyl-2-furanpropanoic acid], the “Annexin V and propidium iodide staining (apoptosis, necrosis)” value (MIN6 cells) is reported as “No significant staining”, the “CpE mRNA” value (murine islets; 200 uM) is reported as “significantly lower levels” and the GCK expression (murine islets; 200 uM) is reported as “trend toward lower expression”. The GLUT2 expression (murine islets; 200 uM) was “significantly reduced”, the “HNF4a mRNA” value (murine islets; 200 uM) was “significant reduction” and the “MAFA mRNA” value (murine islets; 200 uM) was “significant reduction”. The “PCSK1 mRNA” value (murine islets; 200 uM) was “trending lower levels”, the “PCSK2 mRNA” value (murine islets; 200 uM) was “trending lower levels” and the “PDX1 mRNA” value (murine islets; 200 uM) was “significant reduction”. For the same compound, the “insulin mRNA” value (murine islets; 200 uM) was “significant reduction”, the Ucp2 expression (murine islets) was “Increased antioxidant gene expression” and the “catalase (Cat) expression” value (murine islets) was “Increased antioxidant gene expression”. For the same compound, the GSIS (primary human islets) was “impairs GSIS”, the albumin binding (albumin) was “highly albumin-bound” and the GSIS (primary murine islets; 24 hour pre-incubation, vs vehicle and 20 uM) was “impairs GSIS”. The “glucose- and KCl-stimulated insulin secretion” value (primary murine islets; CD1 mouse islets, 24 hours) was “significantly impaired”, the “increase in ROS over controls” value (mouse islets) was 2 fold and the FOXO1 localization [1] was “translocated to the nucleus”. For the same compound, the PDX1 localization [1] was “sequestered outside of the nucleus”.
